The assay has as its target human H-PGDS (Homo sapiens (Human), UniProt O60760). Put plainly: Hematopoietic prostaglandin D synthase (H-PGDS) inhibiting action. Conditions: for inhibition at 0.1 µM / H-PGDS inhibition rate (%): compound at 0.1 μM, relative to the control group; for inhibition at 0.1 µM: read-out: H-PGDS inhibition rate (%). In kind it is biochemical. How it is done:
More specifically, the reaction mixture (49 μL) containing 100 mM Tris-HCl (pH 8.0), 1 mM reduced glutathione, 0.1 mg/mL γ-globulin, and human H-PGDS (q.s.), and a compound (final concentration: 0.01-100 μM) was preincubated at 25° C. for 5 minutes. Note that a DMSO solution (final concentration: 1%) was added to the solvent control group. Subsequently, 1 μL of [14C] prostaglandin H2 (final concentration: 10 μM) was added to start the reaction. One minute after the start of the reaction, 250 μL of a reaction stopper solution (diethylether/methanol/1 M citric acid (30/4/1) at a temperature of −20° C. was added to stop the reaction. After the reaction was stopped, 50 μL of the upper layer portion (organic solvent phase) was applied to a TLC plate and developed at −20° C. for 45 minutes (developing solvent: diethylether/methanol/acetic acid (90/2/1)). After drying the TLC plate, the TLC plate was exposed to an imaging plate for 1 to 24 hours, and the radioactivity corresponding to prostaglandin D2 (PGD2) was analyzed using an image analyzer (produced by Fujifilm Corporation).

[1] abbreviates: human H-PGDS, [14C] prostaglandin H2 10 μM.
The mark [2] stands for this setting: human H-PGDS, [14C] prostaglandin H2 10 μM, read-out: IC50.

Read-outs that look alike come from different tables or passages of the source. A value given as a limit tells only on which side of the number the result lay.

Chain of human H-PGDS (O60760 whole entry): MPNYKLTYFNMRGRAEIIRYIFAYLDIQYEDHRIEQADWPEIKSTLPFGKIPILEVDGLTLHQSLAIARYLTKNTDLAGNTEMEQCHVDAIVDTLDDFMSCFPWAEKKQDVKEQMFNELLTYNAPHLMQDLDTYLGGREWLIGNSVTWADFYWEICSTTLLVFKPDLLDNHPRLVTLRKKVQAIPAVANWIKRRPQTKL

One may read the inhibition as how much of the control response was suppressed. Usually IC50 stands for the point on the concentration scale where inhibition reaches its midpoint. For `Cn1cccc1C(=O)N1CCN(C(=O)Nc2ccc(N3CCC(O)CC3)cc2)CC1` [Example 1, N-(4-(4-hydroxypiperidin-1-yl)-phenyl)-4-((1-methylpyrrol-2-yl)-carbonyl)-1-piperazinecarboxamide], under setting [1], the inhibition at 0.1 µM was 62.2%. Besides, the IC50 under setting [2] stood at 58 nM.

As to `O=C(Nc1ccc(N2CCC(C(=O)N3CCOCC3)CC2)cc1)N1CCN(C(=O)c2cccs2)CC1` [Reference Example 4, 4-((thiophen-2-yl)-carbonyl)-N-(4-(4-morpholin-1-yl-carbonylpiperidin-1-yl)-phenyl)-1-piperazinecarboxamide], the “H-PGDS inhibition rate (%)” value under setting [1] is recorded as 18.0%. Further, the IC50 under setting [2] is 340 nM.

As for `O=C(Nc1ccc(N2CCC(C(=O)N3CCOCC3)CC2)cc1)N1CCN(C(=O)c2ccno2)CC1` [Reference Example 8, 4-((isoxazol-5-yl)-carbonyl)-N-(4-(4-morpholin-1-yl-carbonylpiperidin-1-yl)-phenyl)-1-piperazinecarboxamide], the “H-PGDS inhibition rate (%)” value under setting [1] was −6.6%. The IC50 under setting [2] was above 1000 nM.

As to `O=C(Nc1ccc(N2CCC(C(=O)N3CCOCC3)CC2)cc1)N1CCN(C(=O)c2ccsc2)CC1` [Reference Example 5, 4-((thiophen-3-yl)-carbonyl)-N-(4-(4-morpholin-1-yl-carbonylpiperidin-1-yl)-phenyl)-1-piperazinecarboxamide], the “H-PGDS inhibition rate (%)” value under setting [1] is given as 9.4%. In addition, under setting [2], the IC50 came to 732 nM.

In the case of `Cn1cccc1C(=O)N1CCN(C(=O)Nc2ccc(N3CCC(CCn4cncn4)C3)cc2)CC1` (stereo not drawn) [Example 5, 4-((1-methylpyrrol-2-yl)-carbonyl)-N-(4-(3-(2-(1,2,4-triazol-1-yl)-ethyl)pyrrolidin-1-yl)-phenyl)-1-piperazinecarboxamide], the inhibition at 0.1 µM under setting [1] was 55.5%.

Turning to `Cn1ccnc1C(=O)N1CCN(C(=O)Nc2ccc(N3CCC(C(=O)N4CCOCC4)CC3)cc2)CC1` [Reference Example 9, 4-((1-methylimidazol-2-yl)-carbonyl)-N-(4-(4-morpholin-1-yl-carbonylpiperidin-1-yl)-phenyl)-1-piperazinecarboxamide], the “H-PGDS inhibition rate (%)” value under setting [1] is −2.8%. Also, under setting [2], the IC50 was above 1000 nM.

As to `O=C(Nc1ccc(N2CCC(C(=O)N3CCOCC3)CC2)cc1)N1CCN(C(=O)c2ccoc2)CC1` [Reference Example 7, 4-((furan-3-yl)-carbonyl)-N-(4-(4-morpholin-1-yl-carbonylpiperidin-1-yl)-phenyl)-1-piperazinecarboxamide], under setting [1], the “H-PGDS inhibition rate (%)” value is reported as −4.2%. Besides, the IC50 under setting [2] is above 1000 nM.

As for `O=C(Nc1ccc(N2CCC(C(=O)N3CCOCC3)CC2)cc1)N1CCN(C(=O)c2ccco2)CC1` [Reference Example 6, 4-((furan-2-yl)-carbonyl)-N-(4-(4-morpholin-1-yl-carbonylpiperidin-1-yl)-phenyl)-1-piperazinecarboxamide], the “H-PGDS inhibition rate (%)” value under setting [1] was −2.7%. Also, the IC50 under setting [2] is above 1000 nM.

Regarding `Cn1cccc1C(=O)N1CCN(C(=O)Nc2ccc(N3CCC(C(=O)NCCN4CCOCC4)CC3)cc2)CC1` [Example 16, 4-((1-methylpyrrol-2-yl)-carbonyl)-N-(4-(4-(2-morpholinoethylcarbamoyl)piperidin-1-yl)-phenyl)-1-piperazinecarboxamide], under setting [1], the inhibition at 0.1 µM was 61.1%.

As to `CN1CCN(C(=O)C2CCN(c3ccc(NC(=O)N4CCN(C(=O)c5cccn5C)CC4)cc3)CC2)CC1` [Example 15, 4-((1-methylpyrrol-2-yl)-carbonyl)-N-(4-(4-(4-methylpiperazin-1-yl-carbonyl)piperidin-1-yl)-phenyl)-1-piperazinecarboxamide], the inhibition at 0.1 µM under setting [1] was 61.3%.

Consider `Cn1cccc1C(=O)N1CCN(C(=O)Nc2ccc(N3CCC(CN4CCOCC4)CC3)cc2)CC1` [Example 4, 4-((1-methylpyrrol-2-yl)-carbonyl)-N-(4-(4-morpholinomethylpiperidin-1-yl)-phenyl)-1-piperazinecarboxamide], for which the inhibition at 0.1 µM under setting [1] was determined as 61.5%.

As to `Cn1cccc1C(=O)N1CCN(C(=O)Nc2ccc(N3CCC(CCn4cccn4)CC3)cc2)CC1` [Example 10, 4-((1-methylpyrrol-2-yl)-carbonyl)-N-(4-(4-(2-(pyrazol-1-yl)-ethyl)piperidin-1-yl)-phenyl)-1-piperazinecarboxamide], the inhibition at 0.1 µM under setting [1] came out at 74.3%.

With `Cn1cccc1C(=O)N1CCN(C(=O)Nc2ccc(N3CCC(CCCn4ccnn4)CC3)cc2)CC1` [Example 12, 4-((1-methylpyrrol-2-yl)-carbonyl)-N-(4-(4-(3-(1,2,3-triazol-1-yl)-propyl)piperidin-1-yl)-phenyl)-1-piperazinecarboxamide], the inhibition at 0.1 µM under setting [1] was 72.7%.

Take `Cc1nc(C)n(CCC2CCN(c3ccc(NC(=O)N4CCN(C(=O)c5cccn5C)CC4)cc3)CC2)n1` [Example 9, 4-((1-methylpyrrol-2-yl)-carbonyl)-N-(4-(4-(2-(3,5-dimethyl-1,2,4-triazol-1-yl)-ethyl)piperidin-1-yl)-phenyl)-1-piperazinecarboxamide]: under setting [1], the inhibition at 0.1 µM stood at 54.8%.

Regarding “4-((1-methylpyrrol-2-yl)-carbonyl)-N-(4-(4-(3-(1,2,4-triazol-1-yl-propyl)piperidin-1-yl)-phenyl)-1-piperazinecarboxamide [Example 11]”, the “H-PGDS inhibition rate (%)” value under setting [1] is given as 71.3%. For the same molecule, the IC50 under setting [2] came to 46 nM.

As for `O=C(Nc1ccc(N2CCC(C(=O)N3CCOCC3)CC2)cc1)N1CCN(C(=O)c2ccccc2)CC1` [Reference Example 11, 4-(benzoyl)-N-(4-(4-morpholin-1-yl-carbonylpiperidin-1-yl)-phenyl)-1-piperazinecarboxamide], under setting [1], the “H-PGDS inhibition rate (%)” value came out at 15.8%. For the same molecule, under setting [2], the IC50 came to 437 nM.

On to `Cn1cccc1C(=O)N1CCN(C(=O)Nc2ccc(N3CCC(C(=O)N4CCCCC4)CC3)cc2)CC1` [Example 14, 4-((1-methylpyrrol-2-yl)-carbonyl)-N-(4-(4-piperidin-1-yl-carbonylpiperidin-1-yl)-phenyl)-1-piperazinecarboxamide], for which the inhibition at 0.1 µM under setting [1] was 73.6%.

For `O=C(Nc1ccc(N2CCC(C(=O)N3CCOCC3)CC2)cc1)N1CCN(C(=O)C2CCCC2)CC1` [Reference Example 10, 4-(cyclopentylcarbonyl)-N-(4-(4-morpholin-1-yl-carbonylpiperidin-1-yl)-phenyl)-1-piperazinecarboxamide], under setting [1], the “H-PGDS inhibition rate (%)” value is listed as −2.2%. Also, under setting [2], the IC50 is above 1000 nM.

On to “4-((1-methylindol-2-yl)-carbonyl)-N-(4-(4-morpholin-1-yl-carbonylpiperidin-1-yl)-phenyl)-1-piperazinecarboxamide [Reference Example 12]”, for which the “H-PGDS inhibition rate (%)” value under setting [1] was −0.4%. Also, the IC50 under setting [2] is above 1000 nM.

In turn, `O=C(Nc1ccc(C(F)(F)F)cc1)N1CCN(C(=O)c2cccc(F)n2)CC1` [Reference Example 18, 4-(6-fluoropyridine-2-carbonyl)piperazine-1-carboxylic acid-(4-trifluoromethylphenyl)amide] gave an IC50 above 1000 nM.

With `Cn1cccc1C(=O)N1CCN(C(=O)Nc2ccc(N3CCC(CCN4CCOCC4)CC3)cc2)CC1` [Example 6, 4-((1-methylpyrrol-2-yl)-carbonyl)-N-(4-(4-morpholinoethylpiperidin-1-yl)-phenyl)-1-piperazinecarboxamide], under setting [1], the inhibition at 0.1 µM came to 68.3%.

For the molecule `Cn1cccc1C(=O)N1CCN(C(=O)Nc2ccc(N3CCC(C(=O)NCc4cccnc4)CC3)cc2)CC1` [Example 17, 4-((1-methylpyrrol-2-yl)-carbonyl)-N-(4-(4-(pyridin-3-ylmethylcarbamoyl)piperidin-1-yl)-phenyl)-1-piperazinecarboxamide], the inhibition at 0.1 µM under setting [1] stood at 61.7%.

In the case of “4-((1-ethylpyrrol-2-yl)-carbonyl)-N-(4-(4-morpholin-1-yl-carbonylpiperidin-1-yl)-phenyl)-1-piperazinecarboxamide [Example 13]”, the “H-PGDS inhibition rate (%)” value under setting [1] is 51.8%. Also, the IC50 under setting [2] amounted to 91 nM.

For `Cn1cccc1C(=O)N1CCN(C(=O)Nc2ccc(N3CCC(CCn4ccnn4)CC3)cc2)CC1` [Example 7, 4-((1-methylpyrrol-2-yl)-carbonyl)-N-(4-(4-(2-(1,2,3-triazol-1-yl)-ethyl)piperidin-1-yl)-phenyl)-1-piperazinecarboxamide], the inhibition at 0.1 µM under setting [1] was determined as 66.7%.

“4-((((1-methylpyrrol-2-yl)-carbonyl)-1-piperazinyl)carbonyl)amino-4-phenylpiperidine-4-carboxylic acid [Example 2]”: under setting [1], the “H-PGDS inhibition rate (%)” value was 53.7%. Under setting [2], the IC50 stood at 86 nM.

On to `Cn1ccc(C(=O)N2CCN(C(=O)Nc3ccc(N4CCC(C(=O)N5CCOCC5)CC4)cc3)CC2)c1` [Reference Example 3, 4-((1-methylpyrrol-3-yl)-carbonyl)-N-(4-(4-morpholin-1-yl-carbonylpiperidin-1-yl)-phenyl)-1-piperazinecarboxamide], for which the “H-PGDS inhibition rate (%)” value under setting [1] is −4.8%. Moreover, under setting [2], the IC50 was above 1000 nM.

Take `Cn1cccc1C(=O)N1CCN(C(=O)Nc2ccc(N3CCC(CCn4cncn4)CC3)cc2)CC1` [Example 8, 4-((1-methylpyrrol-2-yl)-carbonyl)-N-(4-(4-(2-(1,2,4-triazol-1-yl)-ethyl)piperidin-1-yl)-phenyl)-1-piperazinecarboxamide]: the inhibition at 0.1 µM under setting [1] came out at 58.9%. Under setting [2], the IC50 stood at 62 nM.

For the origin of these results see patent US8865714B2, “Piperazine compound capable of inhibiting prostaglandin D synthase” (Taiho Pharmaceutical Co., Ltd., priority 2009, dated 2014).
